How the values were obtained:
thoracic aorta = assay: Isolated thoracic aorta contraction caused by 75 mM KCl; parameters: species or system Wistar rat
Procedure: After sacrificing Wistar rat of weight between 300-500 gm, the thoracic aorta was immediately removed and placed in cold Kreb's solution. The fatty connecting tissue surrounding the vessel wall was removed and the thoracic aorta was cut into rings of length 5 mm. The two ends of each ring was pieced and fixed with “Z” shaped platinum wires. […] The sample was given 1 gm of tension and equilibrated for 60 minutes before the following experiments were carried out:
After thoracic aorta had reached equilibrium in the tissue trough, the normal Kreb's solution in the trough was replaced with 75 mM KCl solution to induce vasoconstriction. When the results had been recorded for at least 35 minutes, the aorta was repeatedly rinsed with normal Kreb's solution. After the aorta had re-equilibrated and at least rested for 60 minutes, different concentrations (10^−8, 10^−7, 10^−6, and 10^−5M) of compound 1 were separately added. 30 minutes later, 75 mM KCl was added again to induce vasoconstriction. This method was used to compare the differences in contraction induced by 75 mM KCl on thoracic aorta pre-treated and non-treated with compound 1.
0.1 μM of BayK8644 was first added into the tissue trough. 10 minutes later, 75 mM of concentrated Potassium solution was added to induce thoracic aorta contraction. When vasoconstriction had reached stability, different concentrations of (10^−8, 10^−7, 10^−6, and 10^−5M) compound 1 were separately added. The effects of aorta contraction induced by concentrated Potassium solution were observed.

A7r5 cells = conditions: 10^−8, 10^−7, 10^−6M for 5 minutes

SMILES: COC(=O)C1=C(C)NC(C)=C(C(=O)OC)C1c1ccc(OCC(O)CNC(C)(C)C)c(OC)c1 (centres unmarked) [Compound 1]
- effect on 75 mM KCl contracted thoracic aorta (thoracic aorta; 10^−8, 10^−7, 10^−6, and 10^−5 M): dose-dependant vasoconstriction
- Aorta Relaxation (thoracic aorta; 10^−8M, 75 mM KCl contraction): 30 ± 3%
- effect of 0.1 μM BayK8644 pre-treatment on the aorta effect (thoracic aorta; BayK8644 0.1 μM 10 minutes, then concentrated Potassium solution): would affect vasoconstriction function
- calcium ion influx effect of BayK8644 (A7r5 cells; 10 μM BayK8644): significantly blocked
- calcium ion influx effect of KCl (A7r5 cells; 50 mM KCl): significantly blocked

From patent publication US20050009886A1, “1,4-Dihydropyridine derivative with a guaiacoxypropanolamine and/or phenoxypropanolamine moiety” (priority 1998, published 2005)
